Consider 2 compounds from PMC8199245, “Serotonin Promotes Serum Albumin Interaction with the Monomeric Amyloid β Peptide” (International Journal of Molecular Sciences, 2021).

Data set [1] addresses T1, HSA–monomeric Aβ42 (recombinant human Aβ42) (Homo sapiens, UniProt P02768). Briefly: SPR of HSA interaction with immobilized monomeric Aβ42, without/with SRO or TRP. As to conditions: SPR 25 °C; for Kd: KD (apparent, HSA–Aβ42), KD × 10^7, i.e. value × 10^−7 M; for Kd / ka (effective, HSA–Aβ42) / kd (effective, HSA–Aβ42): HSA 5–60 µM, mean ± SD; for ka (effective, HSA–Aβ42): ka × 10^−3, i.e. value × 10^3 M^−1s^−1; for kd (effective, HSA–Aβ42): kd × 10^4, i.e. value × 10^−4 s^−1. The procedure: (§1) The recombinant human Aβ40 or Aβ42 sample was immobilized on the surface of the SPR sensor chip by amine coupling, followed by removal from the surface of the non-covalently bound Aβ molecules by a 2% SDS water solution [12]. […] (5–60 µM) was used as an analyte.
(§2) Aβ40/Aβ42 was immobilized on the sensor chip’s surface by amine coupling.
(§3) Recombinant human Aβ40/Aβ42 samples were pretreated for SPR measurements mainly as described in [46]. The freeze-dried Aβ sample was dissolved in neat TFA at a concentration of 0.5–1 mg/mL. The solution was sonicated for 30 s. TFA was evaporated using Eppendorf Concentrator plus. The dried Aβ sample was dissolved in DMSO at a concentration of 2 mg/mL, and stored at −20 °C.
(§4) SPR measurements were performed at 25 °C using a Bio-Rad ProteOn™ XPR36 instrument mainly as previously described. Ligand (57 μg/mL recombinant human Aβ40/Aβ42 in 10 mM sodium acetate, pH 4.5 buffer) was immobilized on a ProteOn GLH sensor chip surface (up to 7000–9000 RUs) by amine coupling. The remaining activated amine groups on the chip surface were blocked by 1 M ethanolamine solution. The non-covalently bound Aβ40/Aβ42 molecules were washed from the chip surface with 2% SDS water solution until stabilization of the signal. […] The sensor chip surface was regenerated by passage of 10 mM EDTA pH 7.9 solution containing 2% SDS. […] The double-referenced SPR sensograms were globally fitted according to the one-site binding model using Bio-Rad ProteOn Manager™ v.3.1 software.

Data set [2] concerns HSA–monomeric Aβ. The data set is described as follows: SPR of HSA interaction with monomeric Aβ (isoform not given). The format is binding, human.
In data set [3] the test system is Aβ level in interstitial brain fluid. As to conditions: direct infusion into the hippocampus, mouse model of AD; cited from earlier work. The method, then: (§5) The SRO concentration in plasma is 0.28–1.7 µM [40], but in the synaptic cleft it may reach 6 mM and 55 nM after SRO diffuses into the extracellular compartment.
The conditions of data set [4]: physiological (endogenous), cited from earlier work. The procedure:
as §5

The target in data set [5] is T2, HSA–monomeric Aβ40 (recombinant human Aβ40) (Homo sapiens, UniProt P02768). The data set is described as follows: SPR of HSA interaction with immobilized monomeric Aβ40, without/with SRO or TRP. As to conditions: SPR 25 °C; for Kd: KD (apparent, HSA–Aβ40), KD × 10^7, i.e. value × 10^−7 M; for Kd / ka (effective, HSA–Aβ40) / kd (effective, HSA–Aβ40): HSA 5–60 µM, mean ± SD; for ka (effective, HSA–Aβ40): ka × 10^−3, i.e. value × 10^3 M^−1s^−1; for kd (effective, HSA–Aβ40): kd × 10^4, i.e. value × 10^−4 s^−1. The method, then:
as §1, §2, §3, §4

The test system of a further data set is Aβ42. On the set-up: method as in PMID 29131485. As to conditions: 50–100 µM SRO; cited from earlier work.
Data set [6] concerns HSA. Set-up: method as in PMID 17191887. As to conditions: read-out: equilibrium dissociation constant (KD) for the HSA–SRO complex; cited from earlier work.
For data set [7], the system named is HSA. Briefly: Dynamic light scattering of HSA. Set-up: species or system human. As to conditions: 1 mM SRO, HSA 36 µM, 25 °C, pH 7.4. The procedure: The standard deviations are indicated.
The back-scattered light from a 4 mW He/Ne laser (632.8 nm) was collected at an angle of 173°. The acquisition time for a single autocorrelation function was 45 s. The resulting autocorrelation functions are averaged values from 20 measurements. The volume–size distributions were calculated using the following parameters: a refractive index of 1.330 and a viscosity value of 0.8882 cP.

Data set [8] relates to HSA. Briefly: Glutaraldehyde crosslinking of HSA with SDS-PAGE. On the set-up: species or system human. As to conditions: HSA 36 µM, 37 °C.
Data set [9] concerns the target T1, HSA–monomeric Aβ42 (recombinant human Aβ42). Set-up: method as in PMID 30685090. As to conditions: cited from earlier work.
Data set [10] has as its system HSA–monomeric Aβ. As to conditions: cited from earlier work. An excerpt: (§6) An alternative, less invasive approach to the lowering of the free Aβ level in the brain is a pharmacologically guided shift in the equilibrium between HSA and Aβ towards their complex. The latter possibility was recently confirmed by arachidonic/linoleic-aci ...
Data set [11] concerns brain Aβ deposition in AD mouse models. As to conditions: dietary; cited from earlier work.
From the text: as §6

The target in data set [12] is T2, HSA–monomeric Aβ40 (recombinant human Aβ40). Set-up: method as in PMID 30685090. As to conditions: cited from earlier work.
Where [13] appears, read: 1 mM SRO, main cause of KD decrease.

Entries after “also recorded” stand apart in the source; their conditions may differ. Where only a bound is given, the exact number is not on record here.

T1 sequence (P05067 672-713): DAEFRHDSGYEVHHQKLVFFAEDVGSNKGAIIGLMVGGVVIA
T1 sequence (P02768 25-609): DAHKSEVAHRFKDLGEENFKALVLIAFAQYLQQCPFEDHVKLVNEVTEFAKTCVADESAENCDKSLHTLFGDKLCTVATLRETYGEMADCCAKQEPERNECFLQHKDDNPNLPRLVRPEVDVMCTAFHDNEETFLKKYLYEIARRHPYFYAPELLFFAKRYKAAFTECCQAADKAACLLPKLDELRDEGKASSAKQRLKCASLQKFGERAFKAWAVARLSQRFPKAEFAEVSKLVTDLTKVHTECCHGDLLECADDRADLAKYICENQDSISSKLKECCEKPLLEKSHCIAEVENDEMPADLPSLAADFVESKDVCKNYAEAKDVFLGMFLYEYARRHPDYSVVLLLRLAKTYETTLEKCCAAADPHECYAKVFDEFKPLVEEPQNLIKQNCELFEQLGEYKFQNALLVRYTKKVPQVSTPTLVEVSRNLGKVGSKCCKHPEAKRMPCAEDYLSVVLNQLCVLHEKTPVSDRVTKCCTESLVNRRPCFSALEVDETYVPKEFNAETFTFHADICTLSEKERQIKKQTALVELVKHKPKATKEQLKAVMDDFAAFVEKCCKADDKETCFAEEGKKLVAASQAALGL
T2 sequence (P05067 672-711): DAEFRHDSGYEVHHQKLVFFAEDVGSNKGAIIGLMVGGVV
T2 sequence (P02768 25-609): as the sequence (P02768 25-609) above

For `NCCc1c[nH]c2ccc(O)cc12` [SRO, 5-hydroxytryptamine], the “factor of decrease in apparent KD / increase in affinity of HSA–Aβ42” value in [1] (1 mM SRO vs no ligand, pH 7.4) was 17 factor. Moreover, the “effect on dissociation of HSA–Aβ42 complex” value in data set [1] (setting [13]) is listed as “slowdown of the dissociation process”. Moreover, the Kd worked out at 40 ± 20 nM in [1] (10 µM HSA ligand, pH 7.4); 9 ± 4 nM in [1] (100 µM HSA ligand, pH 7.4); 7 ± 1.5 nM in data set [1] (1 mM HSA ligand, pH 7.4); 40 ± 20 nM in data set [5] (10 µM HSA ligand, pH 7.4); 15 ± 13 nM in data set [5] (100 µM HSA ligand, pH 7.4); 9 ± 5 nM in [5] (1 mM HSA ligand, pH 7.4). Also, in the data set on HSA [6], the Kd is 1600 nM. Also, the “ka (effective, HSA–Aβ42)” value in [1] (10 µM HSA ligand, pH 7.4) was 0.6 ± 0.4 × 10^−3, M^−1s^−1; in data set [1] (100 µM HSA ligand, pH 7.4), 0.9 ± 0.2 × 10^−3, M^−1s^−1; in data set [1] (1 mM HSA ligand, pH 7.4), 1.2 ± 0.2 × 10^−3, M^−1s^−1. Moreover, the “kd (effective, HSA–Aβ42)” value in data set [1] (10 µM HSA ligand, pH 7.4) is given as 0.20 ± 0.14 × 10^4, s^−1; in [1] (100 µM HSA ligand, pH 7.4) it was 0.08 ± 0.02 × 10^4, s^−1; in data set [1] (1 mM HSA ligand, pH 7.4), 0.086 ± 0.009 × 10^4, s^−1. The “effect on HSA's affinity to Aβ” value in the data set with HSA–monomeric Aβ [2] (10 µM SRO, SPR 25 °C) is on record as “absence of a marked influence”. Further, the “effect on HSA's affinity to monomeric Aβ / activation of HSA–Aβ interaction” value in the data set on HSA–monomeric Aβ [2] (general statement, SPR) was “the most potent activator of HSA–Aβ interaction reported to date”. Moreover, the “fold decrease in KD of HSA–Aβ” value in the data set with HSA–monomeric Aβ [2] (up to, vs no ligand) was ≤ 17 fold. The “Aβ level in interstitial brain fluid” value in data set [3] was “decrease in the Aβ level in interstitial brain fluid”. In data set [4] (may reach), the “SRO concentration after diffusion into the extracellular compartment” value was ≤ 55 nM. In addition, in [4] (may reach), the “SRO concentration in the synaptic cleft” value is ≤ 6 mM. Besides, in [4], the “SRO concentration in plasma” value is 0.28 to 1.7 µM. The “factor of decrease in apparent KD / increase in affinity of HSA–Aβ40” value in data set [5] (1 mM SRO vs no ligand, pH 7.4) is on record as 7 factor. Also, the “effect on dissociation of HSA–Aβ40 complex” value in data set [5] (setting [13]) is “slowdown of the dissociation process”. Also, the “ka (effective, HSA–Aβ40)” value is 0.7 ± 0.2 × 10^−3, M^−1s^−1 in data set [5] (10 µM HSA ligand, pH 7.4); 1.5 ± 1.2 × 10^−3, M^−1s^−1 in data set [5] (100 µM HSA ligand, pH 7.4); 1.0 ± 0.5 × 10^−3, M^−1s^−1 in data set [5] (1 mM HSA ligand, pH 7.4). The “kd (effective, HSA–Aβ40)” value is on record as 0.26 ± 0.03 × 10^4, s^−1 in data set [5] (10 µM HSA ligand, pH 7.4); 0.19 ± 0.12 × 10^4, s^−1 in data set [5] (100 µM HSA ligand, pH 7.4); 0.09 ± 0.05 × 10^4, s^−1 in data set [5] (1 mM HSA ligand, pH 7.4). Further, the “inhibition of Aβ42 fibrillation” value in the data set with Aβ42 is “efficient inhibition of Aβ42 fibrillation; also recorded: potent inhibition of Aβ42 fibrillation”. In the data set with HSA [7], the “accumulation of multimeric HSA forms (DLS), compared with TRP” value is “more prominent accumulation of its multimeric forms”. Further, the “fold increase in content of HSA high-molecular-weight forms (at the expense of the monomer)” value in the data set on HSA [8] (1 mM SRO, 0.02% glutaraldehyde, 1 h, pH 7.4) is “approximately 2 fold”. Besides, the “effect on quaternary structure of HSA” value with HSA [8] (1 mM ligand, glutaraldehyde crosslinking, overall statements also rest on DLS) is recorded as “more distinct changes in the quaternary structure of HSA, relative to the TRP-induced effects; also recorded: more marked changes in the quaternary structure of HSA”.
For the compound `CCCCC/C=C\C/C=C\CCCCCCCC(=O)O` [linoleic acid], the “fold decrease in KD of HSA–monomeric Aβ42” value in [9] was 3 fold. In addition, the “effect on HSA affinity to Aβ” value in the data set on HSA–monomeric Aβ [10] is given as “enhancement of HSA affinity to Aβ”. For the same compound, in data set [11], the “effect on brain Aβ deposition” value is recorded as “reduces brain Aβ deposition”. For the same compound, in data set [12], the “fold decrease in KD of HSA–monomeric Aβ40” value is listed as 3 fold.
